pIC50: −log10 of the molar value.
Columns and labels:
Experiment in all cases: cells
KNS-81-FD = type: functional, cell-based, Homo sapiens; conditions: Homo sapiens, KNS-81-FD;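 also: growth inhibition of KNS-81-FD cells, read out with a cell viability assay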
Description: SANGER: Inhibition of human KNS-81-FD cell growth in a cell viability assay.

TE-10 = type: functional, cell-based, Homo sapiens; conditions: Homo sapiens, TE-10;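 also: growth inhibition of TE-10 cells, measured by a cell viability assay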
OCI-AML2 = type: functional, cell-based; conditions: Homo sapiens;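 also: growth inhibition of OCI-AML2 cells, read out with a cell viability assay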
Description: SANGER: Inhibition of human OCI-AML2 cell growth in a cell viability assay.

RKO = type: functional, cell-based, Homo sapiens; conditions: Homo sapiens, RKO;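 also: growth inhibition of human RKO cells, read out with a cell viability assay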
MN-60 = type: functional, cell-based; conditions: Homo sapiens;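 also: growth inhibition of the MN-60 cell line, determined with a cell viability assay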
Description: SANGER: Inhibition of human MN-60 cell growth in a cell viability assay.

A2780 = type: functional, cell-based, Homo sapiens; conditions: Homo sapiens, A2780;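 also: growth inhibition of A2780 cells, read out with a cell viability assay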
Description: SANGER: Inhibition of human A2780 cell growth in a cell viability assay.

MS-1 = type: functional, cell-based; conditions: Homo sapiens;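 also: growth inhibition of MS-1 cells, read out by cell viability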
Description: SANGER: Inhibition of human MS-1 cell growth in a cell viability assay.

SJSA-1 = type: functional, cell-based, Homo sapiens; conditions: Homo sapiens, SJSA-1;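 also: growth inhibition of human SJSA-1 cells, read out through a cell viability measurement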
Description: SANGER: Inhibition of human SJSA-1 cell growth in a cell viability assay.

SNU-387 = type: functional, cell-based, Homo sapiens; conditions: Homo sapiens, SNU-387
Description: SANGER: Inhibition of human SNU-387 cell growth in a cell viability assay.

TYK-nu = type: functional, cell-based, Homo sapiens; conditions: Homo sapiens, TYK-nu;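 also: growth inhibition of human TYK-nu cells, read out by a cell viability assay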
Description: SANGER: Inhibition of human TYK-nu cell growth in a cell viability assay.

AN3-CA = type: functional, cell-based; conditions: Homo sapiens;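 also: growth inhibition of human AN3-CA cells measured by a cell viability assay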
Description: SANGER: Inhibition of human AN3-CA cell growth in a cell viability assay.

HCE-T = type: functional, cell-based, Homo sapiens; conditions: Homo sapiens, HCE-T;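 also: cell viability assay read-out, reporting inhibition of HCE-T cell growth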
Description: SANGER: Inhibition of human HCE-T cell growth in a cell viability assay.

8505C = type: functional, cell-based, Homo sapiens; conditions: Homo sapiens, 8505C
Description: SANGER: Inhibition of human 8505C cell growth in a cell viability assay.

NCI-H1355 = type: functional, cell-based, Homo sapiens; conditions: Homo sapiens, NCI-H1355;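 also: growth inhibition of human NCI-H1355 cells, read out by a cell viability assay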
Description: SANGER: Inhibition of human NCI-H1355 cell growth in a cell viability assay.

ES5 = type: functional, cell-based, Homo sapiens; conditions: Homo sapiens, ES5;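 also: growth inhibition of human ES5 cells, read out by a cell viability assay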
CHL-1 = type: functional, cell-based, Homo sapiens; conditions: Homo sapiens, CHL-1;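 also: cell growth inhibition, read out with a cell viability assay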
Description: SANGER: Inhibition of human CHL-1 cell growth in a cell viability assay.

JVM-3 = type: functional, cell-based; conditions: Homo sapiens;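 also: growth inhibition of human JVM-3 cells, read out with a cell viability assay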
Description: SANGER: Inhibition of human JVM-3 cell growth in a cell viability assay.

LoVo = type: functional, cell-based; conditions: Homo sapiens;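 also: growth inhibition of human LoVo cells, read out with a cell viability assay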
Description: SANGER: Inhibition of human LoVo cell growth in a cell viability assay.

OVCAR-3 = type: functional, cell-based, Homo sapiens; conditions: Homo sapiens, OVCAR-3;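 also: growth inhibition of human OVCAR-3 cells, determined by a cell viability assay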
Description: SANGER: Inhibition of human OVCAR-3 cell growth in a cell viability assay.

SCH = type: functional, cell-based, Homo sapiens; conditions: Homo sapiens, SCH;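 also: growth inhibition of human SCH cells, read out in a cell viability assay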
Description: SANGER: Inhibition of human SCH cell growth in a cell viability assay.

NB10 = type: functional, cell-based, Homo sapiens; conditions: Homo sapiens, NB10;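 also: growth inhibition of NB10 cells, read out by a cell viability assay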
Description: SANGER: Inhibition of human NB10 cell growth in a cell viability assay.

HuP-T4 = type: functional, cell-based, Homo sapiens; conditions: Homo sapiens, HuP-T4;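 also: cell viability assay measuring how much HuP-T4 cell growth is inhibited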
Description: SANGER: Inhibition of human HuP-T4 cell growth in a cell viability assay.

Capan-2 = type: functional, cell-based, Homo sapiens; conditions: Homo sapiens, Capan-2;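 also: Capan-2 cell growth inhibition, read out with a viability assay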
TGW = type: functional, cell-based; conditions: Homo sapiens;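 also: growth inhibition of human TGW cells, read out with a cell viability assay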
Description: SANGER: Inhibition of human TGW cell growth in a cell viability assay.

SNU-5 = type: functional, cell-based; conditions: Homo sapiens;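 also: cell viability readout used to measure growth inhibition in human NCI-SNU-5 cells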
Description: SANGER: Inhibition of human NCI-SNU-5 cell growth in a cell viability assay.

NCI-H520 = type: functional, cell-based, Homo sapiens; conditions: Homo sapiens, NCI-H520;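 also: growth inhibition of NCI-H520 cells, measured by a cell viability assay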
Description: SANGER: Inhibition of human NCI-H520 cell growth in a cell viability assay.

SW-620 = type: functional, cell-based, Homo sapiens; conditions: Homo sapiens, SW-620;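 also: growth inhibition of human SW-620 cells, measured by a cell viability assay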
Description: SANGER: Inhibition of human SW620 cell growth in a cell viability assay.

SCC-25 = type: functional, cell-based, Homo sapiens; conditions: Homo sapiens, SCC-25;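 also: growth inhibition of SCC-25 cells, measured with a cell viability assay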
RT-112 = type: functional, cell-based, Homo sapiens; conditions: Homo sapiens, RT-112
SK-LU-1 = type: functional, cell-based, Homo sapiens; conditions: Homo sapiens, SK-LU-1;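 also: cell viability assay measuring growth inhibition of human SK-LU-1 cells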
Description: SANGER: Inhibition of human SK-LU-1 cell growth in a cell viability assay.

MEG-01 = type: functional, cell-based; conditions: Homo sapiens;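 also: growth inhibition of MEG-01 cells, read out by a cell viability assay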
Description: SANGER: Inhibition of human MEG-01 cell growth in a cell viability assay.

ES7 = type: functional, cell-based, Homo sapiens; conditions: Homo sapiens, ES7;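 also: growth inhibition of cultured human ES7 cells, read out as cell viability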
Description: SANGER: Inhibition of human ES7 cell growth in a cell viability assay.

HCC1954 = type: functional, cell-based, Homo sapiens; conditions: Homo sapiens, HCC1954;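 also: growth inhibition of human HCC1954 cells, read out with a cell viability assay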
Description: SANGER: Inhibition of human HCC1954 cell growth in a cell viability assay.

LOX IMVI = type: functional, cell-based; conditions: Homo sapiens
Description: SANGER: Inhibition of human LOXIMVI cell growth in a cell viability assay.

HuTu80 = type: functional, cell-based, Homo sapiens, HUTU-80; conditions: Homo sapiens, HuTu80;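 also: growth inhibition of HuTu80 human cells, determined with a cell viability readout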
Description: SANGER: Inhibition of human HUTU-80 cell growth in a cell viability assay.

786-0 = type: functional, cell-based, Homo sapiens; conditions: Homo sapiens
Description: SANGER: Inhibition of human 786-0 cell growth in a cell viability assay.

L-363 = type: functional, cell-based; conditions: Homo sapiens
Description: SANGER: Inhibition of human L-363 cell growth in a cell viability assay.

KYSE-70 cell line = type: functional, cell-based, Homo sapiens; conditions: Homo sapiens, KYSE-70;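 also: cell viability assay read-out, with IC50 expressing suppression of KYSE-70 cell growth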
Description: SANGER: Inhibition of human KYSE-70 cell growth in a cell viability assay.

SF-126 = type: functional, cell-based, Homo sapiens; conditions: Homo sapiens, SF-126;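 also: growth inhibition of human SF126 cells, read out with a cell viability assay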
Description: SANGER: Inhibition of human SF126 cell growth in a cell viability assay.

TGBC24TKB = type: functional, cell-based, Homo sapiens; conditions: Homo sapiens, TGBC24TKB;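 also: growth inhibition of human TGBC24TKB cells, read out with a cell viability assay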
Description: SANGER: Inhibition of human TGBC24TKB cell growth in a cell viability assay.

NCI-H810 = type: functional, cell-based, Homo sapiens; conditions: Homo sapiens, NCI-H810;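 also: IC50 reflects inhibition of cancer cell line growth, read out with a cell viability assay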
Description: SANGER: Inhibition of human NCI-H810 cell growth in a cell viability assay.

NCI-H1650 = type: functional, cell-based, Homo sapiens; conditions: Homo sapiens, NCI-H1650;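 also: growth inhibition of human NCI-H1650 cells measured by a cell viability assay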
Description: SANGER: Inhibition of human NCI-H1650 cell growth in a cell viability assay.

SK-MEL-24 = type: functional, cell-based; conditions: Homo sapiens;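 also: growth inhibition read out by a cell viability assay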
Description: SANGER: Inhibition of human SK-MEL-24 cell growth in a cell viability assay.

KYSE-510 = type: functional, cell-based, Homo sapiens; conditions: Homo sapiens, KYSE-510;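 also: cell viability readout used to measure how strongly growth of the cell line is suppressed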
Description: SANGER: Inhibition of human KYSE-510 cell growth in a cell viability assay.

KYSE-520 cell line = type: functional, cell-based, Homo sapiens; conditions: Homo sapiens, KYSE-520;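 also: growth inhibition of human KYSE-520 cells, read out with a viability assay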
Description: SANGER: Inhibition of human KYSE-520 cell growth in a cell viability assay.

YAPC = type: functional, cell-based, Homo sapiens; conditions: Homo sapiens, YAPC;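 also: growth inhibition of YAPC cells, measured with a cell viability assay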
Description: SANGER: Inhibition of human YAPC cell growth in a cell viability assay.

BB49-HNC = type: functional, cell-based, Homo sapiens; conditions: Homo sapiens, BB49-HNC;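 also: cell viability assay read-out, reported as inhibition of BB49-HNC cell growth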
Description: SANGER: Inhibition of human BB49-HNC cell growth in a cell viability assay.

KP-N-YN = type: functional, cell-based; conditions: Homo sapiens;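 also: growth inhibition of KP-N-YN cells, read out with a cell viability assay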
Description: SANGER: Inhibition of human KP-N-YN cell growth in a cell viability assay.

GB-1 = type: functional, cell-based, Homo sapiens; conditions: Homo sapiens, GB-1;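 also: growth of GB-1 cells judged by a viability assay, IC50 marks the concentration inhibiting growth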
Description: SANGER: Inhibition of human GB-1 cell growth in a cell viability assay.

LC-2-ad = type: functional, cell-based, Homo sapiens; conditions: Homo sapiens, LC-2-ad;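 also: growth inhibition of human LC-2-ad cells, read out with a cell viability assay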
Description: SANGER: Inhibition of human LC-2-ad cell growth in a cell viability assay.

HMV-2 cell line = type: functional, cell-based, Homo sapiens; conditions: Homo sapiens, HMV-2;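 also: growth inhibition of HMV-II cells, read out with a cell viability assay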
Description: SANGER: Inhibition of human HMV-II cell growth in a cell viability assay.

FTC-133 = type: functional, cell-based, Homo sapiens; conditions: Homo sapiens, FTC-133

SMILES: Cc1ccc(Nc2nccc(N(C)c3ccc4c(C)n(C)nc4c3)n2)cc1S(N)(=O)=O [PAZOPANIB]
- pIC50 (KNS-81-FD): < 5.10
- pIC50 (TE-10): < 5.10
- pIC50 (OCI-AML2): < 5.10
- pIC50 (RKO): < 5.10
- pIC50 (MN-60): < 5.10
- pIC50 (A2780): < 5.10
- pIC50 (MS-1): < 5.10
- pIC50 (SJSA-1): < 5.10
- pIC50 (SNU-387): < 5.10
- pIC50 (TYK-nu): < 5.10
- pIC50 (AN3-CA): 8.00
- pIC50 (HCE-T): < 5.10
- pIC50 (8505C): < 5.10
- pIC50 (NCI-H1355): < 5.10
- pIC50 (ES5): < 5.10
- pIC50 (CHL-1): < 5.10
- pIC50 (JVM-3): < 5.10
- pIC50 (LoVo): < 5.10
- pIC50 (OVCAR-3): < 5.10
- pIC50 (SCH): < 5.10
- pIC50 (NB10): < 5.10
- pIC50 (HuP-T4): < 5.10
- pIC50 (Capan-2): < 5.10
- pIC50 (TGW): < 5.10
- pIC50 (SNU-5): < 5.10
- pIC50 (NCI-H520): 5.24
- pIC50 (SW-620): < 5.10
- pIC50 (SCC-25): < 5.10
- pIC50 (RT-112): 5.96
- pIC50 (SK-LU-1): 5.50
- pIC50 (MEG-01): < 5.10
- pIC50 (ES7): < 5.10
- pIC50 (HCC1954): < 5.10
- pIC50 (LOX IMVI): < 5.10
- pIC50 (HuTu80): 5.89
- pIC50 (786-0): < 5.10
- pIC50 (L-363): < 5.10
- pIC50 (KYSE-70 cell line): < 5.10
- pIC50 (SF-126): 5.61
- pIC50 (TGBC24TKB): < 5.10
- pIC50 (NCI-H810): 5.20
- pIC50 (NCI-H1650): < 5.10
- pIC50 (SK-MEL-24): < 5.10
- pIC50 (KYSE-510): < 5.10
- pIC50 (KYSE-520 cell line): < 5.10
- pIC50 (YAPC): < 5.10
- pIC50 (BB49-HNC): < 5.10
- pIC50 (KP-N-YN): < 5.10
- pIC50 (GB-1): 5.24
- pIC50 (LC-2-ad): < 5.10
- pIC50 (HMV-2 cell line): < 5.10
- pIC50 (FTC-133): < 5.10

SMILES: Cn1cncc1[C@@](N)(c1ccc(Cl)cc1)c1ccc2c(c1)c(-c1cccc(Cl)c1)cc(=O)n2C [TIPIFARNIB]
- pIC50 (KNS-81-FD): 4.95
- pIC50 (TE-10): 6.09
- pIC50 (OCI-AML2): 5.69
- pIC50 (RKO): 5.91
- pIC50 (MN-60): < 4.80
- pIC50 (A2780): 5.48
- pIC50 (MS-1): < 4.80
- pIC50 (SJSA-1): < 4.80
- pIC50 (SNU-387): 5.15
- pIC50 (TYK-nu): < 4.80
- pIC50 (AN3-CA): 6.00
- pIC50 (HCE-T): 5.10
- pIC50 (8505C): 6.37
- pIC50 (NCI-H1355): 6.01
- pIC50 (ES5): < 4.80
- pIC50 (CHL-1): 6.09
- pIC50 (JVM-3): < 4.80
- pIC50 (LoVo): 6.62
- pIC50 (OVCAR-3): < 4.80
- pIC50 (SCH): < 4.80
- pIC50 (NB10): 4.93
- pIC50 (HuP-T4): 5.52
- pIC50 (Capan-2): 4.97
- pIC50 (TGW): < 4.80
- pIC50 (SNU-5): < 4.80
- pIC50 (NCI-H520): 5.65
- pIC50 (SW-620): 6.32
- pIC50 (SCC-25): 5.23
- pIC50 (RT-112): 6.42
- pIC50 (SK-LU-1): 5.45
- pIC50 (MEG-01): 5.44
- pIC50 (ES7): 5.83
- pIC50 (HCC1954): 4.84
- pIC50 (LOX IMVI): < 4.80
- pIC50 (HuTu80): 6.55
- pIC50 (786-0): 6.47
- pIC50 (L-363): < 4.80
- pIC50 (KYSE-70 cell line): 5.85
- pIC50 (SF-126): 5.41
- pIC50 (TGBC24TKB): < 4.80
- pIC50 (NCI-H810): 5.79
- pIC50 (NCI-H1650): < 4.80
- pIC50 (SK-MEL-24): 5.77
- pIC50 (KYSE-510): 6.01
- pIC50 (KYSE-520 cell line): < 4.80
- pIC50 (YAPC): < 4.80
- pIC50 (BB49-HNC): 5.23
- pIC50 (KP-N-YN): < 4.80
- pIC50 (GB-1): 5.43
- pIC50 (LC-2-ad): 5.83
- pIC50 (HMV-2 cell line): 6.67
- pIC50 (FTC-133): < 4.80
